Experimental data published in patent US7658928B2, “Method of vaccination comprising administering an antigen and a cathelicidin derived antimicrobial peptide” (Intercell AG, priority 2000, dated 2010).

What was measured:
tumor growth = conditions: co-injection with an appropriate peptide as a vaccine, mouse models (Schmidt, Buschle et al. 1997); cited from earlier work
neutrophils = conditions: Agerberth, Charo et al. 2000; De, Chen et al. 2000; cited from earlier work
[1] = test system: IFN-γ-producing specific cells (TRP-2 181-188 VYDFFVWL); assay: IFN-γ ELISpot after vaccination of mice with TRP-2 peptide plus carrier-peptide; type: in vivo, mice (C57BL/6); conditions: s.c. days 0, 7, 14, 100 μg VYDFFVWL + carrier-peptide, two weeks after 3rd vaccination, versus peptide alone or peptide plus poly-L-arginine; for IFN-γ-producing specific cells, splenocytes: FIG. 10
Description: The groups of mice were injected as follows (amounts indicated/per mouse). • (1) 100 μg […] (SEQ ID NO:25) • (2) 100 μg […] (SEQ ID NO:25)+100 μg poly-L-arginine • (3) 100μ […] (SEQ ID NO:25)+[…] cathelicidin derived antimicrobial peptide (SEQ ID NO:1) • (4) 100 μg […] (SEQ ID NO:25)+500 μg bovine indolicidin (SEQ ID NO:3)
Two weeks after the 3rd vaccination, draining (inguinal) lymph nodes and spleens were removed and […].

[2] = test system: P388D1 cells (murine monocyte-macrophage antigen presenting cell line); assay: TRANSloading assay: uptake of fluorescein-tagged antigenic peptide into P388D1 cells with carrier-peptides, flow cytometry; type: cell-based; conditions: for uptake of antigens in dendritic cells: summary statement, cells of mice
[3] = test system: immature and mature dendritic cells; conditions: Yang, Chen et al. 2001; cited from earlier work
[4] = test system: human CD1a positive dendritic cells; assay: TRANSloading of human dendritic cells with MHC class I and MHC class II peptides by LL-37; type: cell-based
Description: To compare the efficiency of peptide delivery of these diverse “carrier-peptides”, the amount of peptide uptake into APCs was monitored by incubating P388D1 cells (murine monocyte-macrophage antigen presenting cell line; purchased from ATCC (TIB-63), or human CD1a positive (derived from human HLA-A2 positive donors, CD14+ positive PBMCS) dendritic cells, for 1 h at 37° C. with a constant amount of fuorescein-tagged peptide alone or in combination with diverse “carrier-peptides” at concentrations indicated. Before analysing the cells by flow cytometry, the cells were washed extensively to remove free peptide. The relative amount of fluorescein-tagged peptide taken up by the cells was measured by flow-cytometry.
FIG. 8a • (1) no peptide (cells alone) • (2) 2.5 μg FL-[…] (SEQ ID NO:23) (MHC class I; peptide alone) • (3) 2.5 μg FL-[…] (SEQ ID NO:23) (MHC class I)+30 μg LL-37 (SEQ ID:2)
FIG. 8b • (1) no peptide (cells alone) • (2) 2.5 μg FL-[…] (SEQ ID NO:24) (MHC class II; peptide alone) • (3) 2.5 μg FL-[…] (SEQ ID NO:24) (MHC class II)+30 μg LL-37 (SEQ ID:2)

CD4+ T cells = conditions: Agerberth, Charo et al. 2000; De, Chen et al. 2000; cited from earlier work
[5] = test system: peripheral blood monocytes; conditions: utilizing formyl peptide receptor-like 1 (FPRL1) (De, Chen et al. 2000); cited from earlier work
mast cells = mast cells (Niyonsaba, Someya et al. 2001); cited from earlier work

Q: Which “protection from tumor growth” value (tumor growth) does the source give for poly-L-arginine here?
A: Its value is “protects animals from tumor growth”.

Q: Which “protection from tumor growth” value (tumor growth) does the source give for poly-L-lysine here?
A: Its value is “protects animals from tumor growth”.

Q: Which “chemotactic activity for neutrophils” value (neutrophils) does the source give for “PR-39: porcine proline-arginine-rich 39-amino-acid cathelicidin peptide (RRRPRPPYLPRPRPPPFFPPRLPPRIPPGFPPRFPPRFPGKR) [reference compound]” here?
A: Its value is “exert chemotactic activity”.

Q: Which results are given for “murine cathelicidin derived antimicrobial peptide: murine cathelin-related antimicrobial peptide, SEQ ID NO:1 (SRLAGLLRKGGEKIGEKLKKIGQKIKNFFQKL)”?
A: IFN-γ-producing specific cells, splenocytes [1]: more IFN-γ-producing specific cells; uptake of antigens in dendritic cells [2]: enhance the uptake of antigens

Q: With “LL-37: human cathelicidin derived antimicrobial peptide, C-terminal domain of hCAP-18 (LLGDFFRKSKEKIGKEFKRIVQRIKDFLRNLVPRTES)” as the substance, how does the “chemotactic activity for immature and mature dendritic cells” value [3] read?
A: Its value is “no chemotactic activity”.

Q: And the “chemotactic activity for neutrophils” value (neutrophils)?
A: Its value is “exert chemotactic activity”.

Q: What about the “pulsing of human dendritic cells with MHC class I antigenic peptide” value ([4]; FIG. 8a, 2.5 μg FL-[…] + 30 μg LL-37) of the same substance?
A: Its value is “to a significant extent”.

Q: What about the “pulsing of human dendritic cells with MHC class II antigenic peptide” value ([4]; FIG. 8b, 2.5 μg FL-[…] + 30 μg LL-37) of the same substance?
A: The value was “to a significant extent”.

Q: What about the “uptake of antigens in dendritic cells” value ([4]; summary statement, cells of men) of the same substance?
A: Its value is “enhance the uptake of antigens”.

Q: And the “chemotactic activity for CD4+ T cells” value (CD4+ T cells)?
A: The value was “exert chemotactic activity”.

Q: What about the “chemotaxis of peripheral blood monocytes” value [5] of the same substance?
A: Its value is “induces chemotaxis”.

Q: What about the histamine release (mast cells) of the same substance?
A: The histamine release was “shown to induce”.

Q: And the intracellular calcium mobilization (mast cells)?
A: The intracellular calcium mobilization was “shown to induce”.

Q: With “bovine dodecapeptide: bovine cathelicidin derived antimicrobial dodecapeptide, SEQ ID NO:4, linear form in Example 3 (RLCRIVVIRVCR)” as the substance, how does the “pulsing effect with increasing amounts of carrier-peptide” value ([2]; Example 3, FIG. 6, 2 μg FL-LFEAIEGFI + 18.75, 37.5, 75, 150 μg linear bovine dodecapeptide) read?
A: The value was “increased significantly”.

Q: And the “uptake of antigens in dendritic cells” value [2]?
A: Its value is “enhance the uptake of antigens”.

Q: With “NH2-ILPWKWPWWPWRR-CONH2 [bovine indolicidin]” as the substance, how does the “IFN-γ-producing specific cells, lymph node cells” value ([1]; FIG. 9) read?
A: Its value is “more IFN-γ-producing specific cells”.

Q: What about the “IFN-γ-producing specific cells, splenocytes” value [1] of the same substance?
A: The value was “more IFN-γ-producing specific cells”.

Q: What about the “uptake of antigens in dendritic cells” value [2] of the same substance?
A: The value was “enhance the uptake of antigens”.
